Read-outs that look alike come from different tables or passages of the source.
Columns and labels:
[1] = tested on: K562 (chronic myelogenous leukaemia); experiment: Effect of compounds on tumor cell lines (assay of Latham et al.), K562; type: cell-based; settings: Homo sapiens, Table 4, K562 cells, examined 96 hours after treatment, 1 μM to 100 μM in DMSO
Procedure, shortened: (§1)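 K562 or DU145 cells plated at 2.5×10^4 cells/well, treated 24 h later with compound in DMSO at 1 μM to 100 μM (0.1 μM to 100 μM for one compound). Activity judged by microscopic observation after 96 h; where needed, viable cells counted by trypan blue exclusion.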

DU145 (prostate cancer) = experiment: Effect of compounds on tumor cell lines (assay of Latham et al.), DU145; type: cell-based; settings: Homo sapiens, DU-145, Table 4, DU145 cells, examined 96 hours after treatment, 1 μM to 100 μM in DMSO
Procedure, shortened: as §1

[2] = read-out: DU 145 potency (IC50)
[3] = read-out: K 562 potency (IC50), given as number

Structure (SMILES)	IC50 ([1]; read-out: K 562 potency (IC50))	IC50 (DU145 (prostate cancer); [2])	melting point	IC50 [1, 3]	IC50 (DU145 (prostate cancer); read-out: DU 145 potency (IC50), given as number)
Cc1ccc(/C=C(\C(=O)c2ccc([N+](=O)[O-])cc2)S(=O)(=O)Cc2ccc(Cl)cc2)s1 [Example 397]	10 to 25 µM	25 to 50 µM	180 to 182 °C		
O=C(/C(=C\c1ccc(-c2ccccc2)cc1)S(=O)(=O)Cc1ccc(Cl)cc1)c1ccc(Cl)cc1 [Example 398]	25 to 50 µM	25 to 50 µM	65 to 72 °C		
COc1cc(OC)c(/C=C(\C(=O)c2ccc(Br)cc2)S(=O)(=O)Cc2ccc(F)cc2)c(OC)c1 [Example 399]	50 to 100 µM	50 to 100 µM	176 to 182 °C		
COc1cc(OC)c(/C=C(\C(=O)c2ccc(Cl)cc2)S(=O)(=O)Cc2ccc(F)cc2)c(OC)c1 [Example 400]	1 to 10 µM	25 to 50 µM	134 to 138 °C		
Cc1ccc(C)c(/C=C(\C(=O)c2ccc(Br)cc2)S(=O)(=O)Cc2ccc(F)cc2)c1 [Example 401]	1 to 10 µM	1 to 10 µM	167 to 173 °C		
O=C(/C(=C\c1cc([N+](=O)[O-])ccc1F)S(=O)(=O)Cc1ccc(F)cc1)c1ccc(Br)cc1 [Example 403]	50 to 100 µM	> 100 µM	172 to 177 °C		
Cc1cc(C)cc(/C=C(\C(=O)c2ccc(Br)cc2)S(=O)(=O)Cc2ccc(F)cc2)c1 [Example 405]	10 to 25 µM	10 to 25 µM	140 to 143 °C		
O=C(/C(=C\c1c[nH]c2ccccc12)S(=O)(=O)Cc1ccc(F)cc1)c1ccc(Cl)cc1 [Example 406]	50 to 100 µM	50 to 100 µM	> 200 °C		
Cc1ccsc1/C=C(\C(=O)c1ccc(Cl)cc1)S(=O)(=O)Cc1ccc(F)cc1 [Example 407]	1 to 10 µM	10 to 25 µM	146 to 158 °C		
CN(C)c1ccc(/C=C(\C(=O)c2ccc(Br)cc2)S(=O)(=O)Cc2ccc(F)cc2)cc1 [Example 408]	50 to 100 µM	50 to 100 µM	155 to 162 °C		
O=C(/C(=C\c1ccc(Br)cc1)S(=O)(=O)Cc1ccc(F)cc1)c1ccc(Br)cc1 [Example 409]	10 to 25 µM	25 to 50 µM	164 to 168 °C		
CCOc1ccc(/C=C(\C(=O)c2ccc(Cl)cc2)S(=O)(=O)Cc2ccc(F)cc2)cc1OC [Example 412]	25 to 50 µM	50 to 100 µM	145 to 149 °C		
O=C(/C(=C\c1ccc(Br)cc1)S(=O)(=O)Cc1ccc(I)cc1)c1ccc(Br)cc1 [Example 418]			168 to 170 °C	> 50 µM	> 50 µM
O=C(/C(=C\c1ccc(Br)cc1)S(=O)(=O)Cc1ccc(I)cc1)c1ccc(I)cc1 [Example 419, (E)-1-(4-Iodophenyl)-2-(4-iodobenzylsulfonyl)-3-(4-bromophenyl)prop-2-en-1-one]	25 to 50 µM	25 to 50 µM	180 to 182 °C		
O=C(/C(=C\c1ccc(I)cc1)S(=O)(=O)Cc1ccc(I)cc1)c1ccc(Br)cc1 [Example 420, (E)-1-(4-bromophenyl)-2-(4-iodobenzylsulfonyl)-3-(4-iodophenyl)-prop-2-en-1-one]		25 to 50 µM	160 to 162 °C	> 50 µM	
O=C(/C(=C\c1ccc(I)cc1)S(=O)(=O)Cc1ccc(I)cc1)c1ccc(I)cc1 [Example 421, (E)-1-(4-iodophenyl)-2-(4-iodobenzylsulfonyl)-3-(4-iodophenyl)-prop-2-en-1-one]		25 to 50 µM	175 to 177 °C	> 50 µM	

Structure (SMILES)	IC50 ([1]; read-out: K 562 potency (IC50))	IC50 (DU145 (prostate cancer); [2])	melting point	IC50 [1, 3]	IC50 (DU145 (prostate cancer); read-out: DU 145 potency (IC50), given as number)
Cc1ccc(CS(=O)(=O)/C(=C/c2cccc(Cl)c2Cl)C(=O)c2ccc(Cl)cc2)cc1 [Example 423]	1 to 10 µM	1 to 10 µM	162 to 165 °C		
Cc1ccc(CS(=O)(=O)/C(=C/c2c(O)cc(O)cc2O)C(=O)c2ccc(Cl)cc2)cc1 [Example 424]	> 100 µM	> 100 µM	167 to 180 °C		
Cc1ccc(CS(=O)(=O)/C(=C/c2cc(C)ccc2C)C(=O)c2ccc(Cl)cc2)cc1 [Example 425]	1 to 10 µM	1 to 10 µM	176 to 182 °C		
Cc1ccc(CS(=O)(=O)/C(=C/c2ccccc2OCc2ccccc2)C(=O)c2ccc(Cl)cc2)cc1 [Example 426]	1 to 10 µM	1 to 10 µM	112 to 129 °C		
Cc1ccc(CS(=O)(=O)/C(=C/c2cc(C)cc(C)c2)C(=O)c2ccc(Cl)cc2)cc1 [Example 429]	10 to 25 µM	10 to 25 µM	169 to 178 °C		
Cc1ccc(CS(=O)(=O)/C(=C/c2c[nH]c3ccccc23)C(=O)c2ccc(Cl)cc2)cc1 [Example 430]	> 100 µM	25 to 50 µM	160 to 165 °C		
Cc1ccc(CS(=O)(=O)/C(=C/c2sccc2C)C(=O)c2ccc(Cl)cc2)cc1 [Example 431]	25 to 50 µM	25 to 50 µM	98 to 105 °C		
Cc1ccc(CS(=O)(=O)/C(=C/c2ccc(N(C)C)cc2)C(=O)c2ccc(Cl)cc2)cc1 [Example 432]	50 to 100 µM	50 to 100 µM	150 to 154 °C		
Cc1ccc(CS(=O)(=O)/C(=C/c2ccc(Br)cc2)C(=O)c2ccc(Cl)cc2)cc1 [Example 433]	10 to 25 µM	25 to 50 µM	160 to 165 °C		
Cc1ccc(CS(=O)(=O)/C(=C/c2ccc(Cl)cc2)C(=O)c2ccc(Cl)cc2)cc1 [Example 434]	25 to 50 µM	25 to 50 µM	128 to 133 °C		
CCOc1ccc(/C=C(\C(=O)c2ccc(Cl)cc2)S(=O)(=O)Cc2ccc(C)cc2)cc1OC [Example 435]	10 to 25 µM	10 to 25 µM	65 to 72 °C		
CSc1ccc(/C=C(\C(=O)c2ccc(Cl)cc2)S(=O)(=O)Cc2ccc(C)cc2)cc1 [Example 437]	25 to 50 µM	10 to 25 µM	140 to 152 °C		
Cc1ccc(CS(=O)(=O)/C(=C/c2ccc(S(C)(=O)=O)cc2)C(=O)c2ccc(Br)cc2)cc1 [Example 438]	1 to 10 µM	10 to 25 µM	110 to 112 °C		
Cc1ccc(CS(=O)(=O)/C(=C/c2c[nH]c3ccc(Br)cc23)C(=O)c2ccc(Cl)cc2)cc1 [Example 439]	10 to 25 µM	10 to 25 µM	186 to 195 °C		
Cc1ccc(CS(=O)(=O)/C(=C/c2ccc(C)s2)C(=O)c2ccc(Cl)cc2)cc1 [Example 440]	25 to 50 µM	25 to 50 µM	171 to 178 °C		

From US8808702B2, “Sulfide, sulfoxide and sulfone chalcone analogues, derivatives thereof and therapeutic uses thereof” (Temple University-of the Commonwealth System of Higher …, priority 2006, dated 2014)
